These results are taken from patent publication US4041158A, “O-alkyl-0-[1-(3-nitrophenyl)-2-carbalkoxy-vinyl ]-thiono(thiol)-phosphoric (phosphonic) acid esters” (priority 1974, dated 1977).

The subject of one series is Drosophila melanogaster. Kind of series: Drosophila test. The class given is in vivo. To be noted: 24 h, after 1 day, read-out: Degree of destruction in % after 1 day; for mortality at 0.001 % strength: 0.001% by weight active compound; for mortality at 0.01 % strength: 0.01% by weight active compound. As for the experimental part:
Solvent: 3 parts by weight of dimethylformamide
(§1) Emulsifier: 1 part by weight of alkylaryl polyglycol ether
To produce a suitable preparation of active compound, 1 part by weight of the active compound was mixed with the stated amount of solvent containing the stated amount of emulsifier, and the concentrate was diluted with water to the desired concentration.
1 cm^3 of the preparation of the active compound was applied with a pipette to a filter paper disc of 7 cm diameter. The wet disc was placed over the orifice of a glass vessel containing 50 vinegar flies (Drosophila melanogaster) and covered with a glass plate.
After the specified periods of time, the destruction was determined in %. 100% means that all the flies were killed; 0% means that no flies were killed.

Another series deals with Laphygma exigua. Kind of series: Laphygma test. The class given is in vivo. As for the experimental part:
(§2) Solvent: 3 parts by weight of acetone
as §1
To produce a suitable preparation of active compound, 1 part by weight of the active compound was mixed with the stated amount of solvent and the stated amount of emulsifier and the concentrate was diluted with water to the desired concentration.
Cotton leaves (Gossypium hirsutum) were sprayed with the preparation of the active compound until dew-moist and were then infested with caterpillars of the owlet moth (Laphygma exigua).
After the specified periods of time, the destruction in % was determined.

The nature of another series: Toxicity test/peroral. To be noted: in vivo, po; albino rat, peroral; evaluation after 7 days. As for the experimental part:
Test animal: Albino rat (Rattus norvegicus)
To produce a suitable preparation of active compound, 3 parts by weight of active compound were mixed with 2.8 parts by weight of highly-dispersed silica and 4.2 parts by weight of talc. Suspensions which contain, in 1 ml of liquid, the amount of active compound to be applied per 100 g of animal weight, were prepared from the above active compound concentrate, with a little added powdered vegetable gum, by grinding with water. Dosing was effected volumetrically after weighing the test animals. A steel knob-ended probe was used for oral administration. The evaluation was carried out in each case after the end of the above-mentioned time interval, calculated from the administration of the active compound.
The LD50 values (dose of active compound at which 50% of the treated animals were killed) were determined in the usual manner from the mortality figures of the doses, which were varied in geometrical progression.

The test system of another series is insects and acarids. Particulars: in vivo; cited from earlier work.
The subject of another series is Phaedon cochleariae. The series is described as follows: Phaedon larvae test (long-term action after spraying). The class given is in vivo. To be noted: 0.05% active compound, Brassica oleracea. As for the experimental part:
as §2, §1
(§3) To produce a suitable preparation of active compound, 1 part by weight of the active compound was mixed with the stated amount of solvent containing the stated amount of emulsifier and the concentrate was diluted with water to the desired concentration.
(§4) Cabbage plants (Brassica oleracea), which were about 10-15 cm high, were sprayed with the preparation of the active compound until dripping wet.
After the specified periods of time, the plants were infested with mustard beetle larvae (Phaedon cochleariae). After intervals of 3 days, the destruction in % was determined. 100% means that all beetle larvae had been killed whereas 0% means that none of the beetle larvae had been killed.

A further series concerns Myzus persicae. The series is described as follows: Myzus test (long-term action after spraying). Particulars: 0.05% active compound, Brassica oleracea. Format: in vivo. As for the experimental part:
as §2, §1, §3, §4
After the specified periods of time, the plants were infested with aphids (Myzus persicae). After intervals of 3 days, the destruction in % was determined. 100% means that all aphids had been killed whereas 0% means that none of the aphids had been killed.

Another series concerns Lucilia cuprina. The series is described as follows: Test with parasitic fly larvae. Format: in vivo. To be noted: 24 hours, Lucilia cuprina res., read-out: Degree of destruction in %. As for the experimental part:
Solvent: 35 parts by weight of ethylene polyglycol monomethyl ether
35 parts by weight of nonylphenol polyglycol ether
To produce a suitable preparation of active compound, 30 parts by weight of the active substance in question were mixed with the stated amount of solvent which contained the abovementioned proportion of emulsifier and the concentrate thus obtained was diluted with water to the desired concentration.
About 20 fly larvae (Lucilia cuprina) were introduced into a test tube which contains approximately 2 cm^3 of horse muscle. 0.5 ml of the preparation of active compound was applied to this horse meat. After 24 hours, the degree of destruction in % was determined. 100% means that all larvae had been killed and 0% means that no larvae had been killed.

[1] abbreviates: 0.001% by weight active compound.
The mark [2] stands for this setting: 0.01% by weight active compound.
Where [3] appears, read: 96 h, 4 days, read-out: % destruction after 4 days.
Setting [4] is: 192 h, 8 days, read-out: % destruction after 8 days.

Where two headings read alike, the source gives them in different places. Bounds are passed on as bounds.

For `CCCOP(=S)(OCC)OC(=CC(=O)OC(C)C)c1cccc([N+](=O)[O-])c1` (stereo not drawn), in the series on Drosophila melanogaster, the mortality at 0.001 % strength worked out at 98% and the mortality at 0.01 % strength was 100%.

Turning to `CCOC(=O)C=C(OP(=S)(OC)OC)c1cccc([N+](=O)[O-])c1`, the entries for the “Degree of destruction in % after 3 days” value in the series with Laphygma exigua (setting [1]) and in the series with Laphygma exigua (setting [2]) were 85% and 100%, respectively.

The term LD50 denotes the dose at which mortality reaches 50%. The compound `CCCOP(=S)(OCC)OC(=CC(=O)OCC)c1cccc([N+](=O)[O-])c1` (stereo not drawn) yielded an LD50 at 168 h in the series “Toxicity test/peroral” of 50 to 100 mg/kg.

Compound `CCOC(=O)C=C(OP(=S)(OCC)c1ccccc1)c1cccc([N+](=O)[O-])c1` (stereo not drawn) gave an LD50 at 168 h in “Toxicity test/peroral” of 50 to 100 mg/kg.

On to `CCOC(=O)C=C(OP(=S)(OC)OC)c1ccc([N+](=O)[O-])cc1` [Compound A, O,O-dimethyl-O-[1-(4-nitrophenyl)-2-carbethoxyvinyl]-thionophosphoric acid ester], for which, in the series on insects and acarids, the “insecticidal and acaricidal properties” value was “possess insecticidal and acaricidal properties”.

For the compound `CCOC(=O)C=C(OP(=S)(OCC)OCC)c1ccc([N+](=O)[O-])cc1` [Compound B, O,O-diethyl-O-[1-(4-nitrophenyl)-2-carbethoxyvinyl]-thionophosphoric acid ester], the “insecticidal and acaricidal properties” value with insects and acarids was “possess insecticidal and acaricidal properties”.

Turning to `CCOC(=O)C=C(OP(=S)(OC)OC)c1ccc([N+](=O)[O-])cc1` [drawing 8, reference compound], in the series with Drosophila melanogaster, the mortality at 0.001 % strength amounted to 0% and the mortality at 0.01 % strength worked out at 100%.

For the compound `CCOC(=O)C=C(OP(=S)(OCC)OCC)c1cccc([N+](=O)[O-])c1` [drawing 9], in the series on Drosophila melanogaster, the mortality at 0.001 % strength was determined as 99% and the mortality at 0.01 % strength was found to be 100%.

Consider `CCOP(=S)(OCC)OC(=CC(=O)OC(C)C)c1cccc([N+](=O)[O-])c1` [drawing 10], for which, in the series with Drosophila melanogaster, the mortality at 0.001 % strength turned out to be 100% and the mortality at 0.01 % strength was 100%.

In the case of `CCOC(=O)C=C(OP(=S)(OC)OC)c1ccc([N+](=O)[O-])cc1` [drawing 12, reference compound], the “Degree of destruction in % after 3 days” value in the series on Laphygma exigua (setting [1]) is reported as 0%; in the series on Laphygma exigua (setting [2]) it was 100%.

Turning to `CCOC(=O)C=C(OP(=S)(OCC)OCC)c1cccc([N+](=O)[O-])c1` [drawing 14], the “Degree of destruction in % after 3 days” value with Laphygma exigua (setting [1]) and in the series on Laphygma exigua (setting [2]) was 100% each time.

For `CCOP(=S)(OCC)OC(=CC(=O)OC(C)C)c1cccc([N+](=O)[O-])c1` [drawing 19], the “Degree of destruction in % after 3 days” value in the series with Laphygma exigua (setting [1]) and with Laphygma exigua (setting [2]) was 100% each time.

In the case of `CCOC(=O)C=C(OP(=S)(OCC)OCC)c1ccc([N+](=O)[O-])cc1` [drawing 20], the mortality at 0.05 % strength came to 100% in the series with Phaedon cochleariae (setting [3]); 100% in the series on Phaedon cochleariae (setting [4]); 50% in the series with Phaedon cochleariae (264 h, 11 days, read-out: % destruction after 11 days); 0% with Phaedon cochleariae (360 h, 15 days, read-out: % destruction after 15 days).

For the compound `CCOC(=O)C=C(OP(=S)(OCC)OCC)c1ccc([N+](=O)[O-])cc1` [drawing 23], the figures for the mortality at 0.05 % strength in the series with Myzus persicae (setting [3]) and in the series on Myzus persicae (setting [4]) were 50% and 0%, respectively.

In “Toxicity test/peroral”, `CCOC(=O)C=C(OP(=S)(OCC)OCC)c1ccc([N+](=O)[O-])cc1` [drawing 26, reference compound] registered an LD50 at 168 h of 10 to 25 mg/kg.

`CCCSP(=S)(OCC)OC(=CC(=O)OCC)c1cccc([N+](=O)[O-])c1` (stereo not drawn) [drawing 27] showed an LD50 at 168 h in “Toxicity test/peroral” of 100 to 250 mg/kg.

For the compound `CCCSP(=S)(OCC)OC(=CC(=O)OCC)c1cccc([N+](=O)[O-])c1` (stereo not drawn) [drawing 30], in the series on Lucilia cuprina, the mortality at 10 ppm stood at 100% and the mortality at 100 ppm worked out at 100%. The mortality at 30 ppm in the series on Lucilia cuprina (30 ppm) amounted to 100%.

In the case of `CCOC(=O)C=C(OP(=S)(OCC)OCC)c1ccc([N+](=O)[O-])cc1` [drawing 31], in the series with Lucilia cuprina, the mortality at 10 ppm was more than 50% and the mortality at 100 ppm turned out to be 100%.
